Experimental data published in EP4201923A1, “5-SUBSTITUTED 2,3-DIHYDROPYRIDIN-4-ONES AND PROCESS FOR PREPARING THE SAME” (Karl-Franzens-Universität Graz, priority 2021, dated 2023).

Assays:
Micrococcus luteus = assay: Antimicrobial activity, drop plate method assay; type: cell-based; design: key: high activity (++); medium activity (+); low activity (±); no activity(-); conditions: 10 µl of 1 mg/ml in DMSO dropped on seeded agar plate; read after approximately 10-16 h
Experimental: (§1) A drop plate method assay (Alajlani M et al. Chromatographia 2016, 79, 1527-1532.) with modification was performed to detect the antimicrobial activity against several bacteria strains. Investigated compounds (compounds of examples 1-7, 9) were dissolved in DMSO to a concentration of 1 mg/ml. Using sterile micropipette 10 µl of each compound was directly but gently dropped over seeded agar plate with test organism. The liquid was allowed to diffuse before the plate was inverted and incubated. The growth conditions for every strain were considered. The results were noted when a lawn of the indicator organism appeared on the plate (approximately 10-16 h). The magnitude of activity was noted as high activity (++), medium activity (+), low activity (±) and no activity(-). Not determined data are indicated with n.d. Table 3: Antimicrobial activities of compounds_were detected over the test organisms

Serratia sp = assay: Antimicrobial activity, drop plate method assay; type: cell-based; design: key: high activity (++); medium activity (+); low activity (±); no activity(-); conditions: 10 µl of 1 mg/ml in DMSO dropped on seeded agar plate; read after approximately 10-16 h
Experimental: as §1

Escherichia coli = assay: Antimicrobial activity, drop plate method assay; type: cell-based; design: key: high activity (++); medium activity (+); low activity (±); no activity(-); conditions: 10 µl of 1 mg/ml in DMSO dropped on seeded agar plate; read after approximately 10-16 h
Experimental: as §1

Pseudomonas fluorescens = assay: Antimicrobial activity, drop plate method assay; type: cell-based; design: key: high activity (++); medium activity (+); low activity (±); no activity(-); conditions: 10 µl of 1 mg/ml in DMSO dropped on seeded agar plate; read after approximately 10-16 h
Experimental: as §1

MRC-5 cells = assay: Cytotoxicity assay using MRC-5 cells (XTT colorimetric cell viability); type: cell-based, human; conditions: solvent control DMSO 0.1 %
Description: The results are expressed as cell metabolic activity in % of the solvent control.

[1] = test system: human CCRF-CEM leukemia cells; assay: Anticancer activity by cytotoxicity to human CCRF-CEM leukemia cells (XTT colorimetric cell viability); type: cell-based; conditions: solvent control DMSO 0.1 %
Experimental: Assays were performed using an established cancer cell line, human CCRF-CEM leukemia cells and cell viability determined as described above with a colorimetric assay using the tetrazolium salt XTT as reported (Moshin N et al. Monatshefte für Chemie 2018, 149, 801-812). The anticancer drug vinblastine, the solvent DMSO and the untreated cells are used as control. The compounds of examples 1 to 8 were investigated in concentrations of 5 µM and 50 µM. Table 2: Results for anticancer activity against CCRF-CEM cells expressed as cell metabolic activity in % of the solvent control The results are expressed as cell metabolic activity in % of the solvent control. […] Thus, the compounds of the present invention show a substantial anticancer activity.

## CC1(C)CC(=O)C(C(c2ccccc2)N2CCCC2)=CN1 (racemic) [Example 1, (RS)-2,3-Dihydro-2,2-dimethyl-5-(phenyl(pyrrolidin-1-yl)methyl)pyridin-4(1H)-one]
Micrococcus luteus
  Antimicrobial activity, Micrococcus luteus: +
Serratia sp
  Antimicrobial activity, Serratia sp: ±
Escherichia coli
  Antimicrobial activity, Escherichia coli: +
Pseudomonas fluorescens
  Antimicrobial activity, Pseudomonas fluorescens: +
MRC-5 cells; compound 5 µM
  cell metabolic activity in % of the solvent control, mean: 107.18%
MRC-5 cells; compound 50 µM
  cell metabolic activity in % of the solvent control, mean: 87.86%
[1]; compound 5 µM
  cell metabolic activity in % of the solvent control, mean: 88.69%
[1]; compound 50 µM
  cell metabolic activity in % of the solvent control, mean: 9.02%

## CC1(C)CC(=O)C(C(c2ccccc2)N2CCCCC2)=CN1 (racemic) [Example 2, (RS)-2,3-Dihydro-2,2-dimethyl-5-(phenyl(piperidin-1-yl)methyl)pyridin-4(1H)-one]
Micrococcus luteus
  Antimicrobial activity, Micrococcus luteus: +
Serratia sp
  Antimicrobial activity, Serratia sp: ±
Escherichia coli
  Antimicrobial activity, Escherichia coli: +
Pseudomonas fluorescens
  Antimicrobial activity, Pseudomonas fluorescens: +
MRC-5 cells; compound 5 µM
  cell metabolic activity in % of the solvent control, mean: 108.05%
MRC-5 cells; compound 50 µM
  cell metabolic activity in % of the solvent control, mean: 82.27%
[1]; compound 5 µM
  cell metabolic activity in % of the solvent control, mean: 88.18%
[1]; compound 50 µM
  cell metabolic activity in % of the solvent control, mean: 8.75%

## CC1(C)CC(=O)C(C(c2ccccc2)N2CCOCC2)=CN1 (racemic) [Example 3, (RS)-2,3-Dihydro-2,2-dimethyl-5-(phenyl(morpholin-1-yl)methyl)pyridin-4(1H)-one]
Micrococcus luteus
  Antimicrobial activity, Micrococcus luteus: ++
Serratia sp
  Antimicrobial activity, Serratia sp: ±
Escherichia coli
  Antimicrobial activity, Escherichia coli: +
Pseudomonas fluorescens
  Antimicrobial activity, Pseudomonas fluorescens: +
MRC-5 cells; compound 5 µM
  cell metabolic activity in % of the solvent control, mean: 110.88%
MRC-5 cells; compound 50 µM
  cell metabolic activity in % of the solvent control, mean: 84.05%
[1]; compound 5 µM
  cell metabolic activity in % of the solvent control, mean: 93.13%
[1]; compound 50 µM
  cell metabolic activity in % of the solvent control, mean: 10.98%

## CC1(C)CC(=O)C(C(c2ccc(F)cc2)N2CCCC2)=CN1 (racemic) [Example 4, (RS)-2,3-Dihydro-2,2-dimethyl-5-((4-fluorphenyl)-(pyrrolidin-1-yl)methyl)pyridin-4(1H)-one]
Micrococcus luteus
  Antimicrobial activity, Micrococcus luteus: +
Serratia sp
  Antimicrobial activity, Serratia sp: +
Escherichia coli
  Antimicrobial activity, Escherichia coli: ++
Pseudomonas fluorescens
  Antimicrobial activity, Pseudomonas fluorescens: +
MRC-5 cells; compound 5 µM
  cell metabolic activity in % of the solvent control, mean: 105.92%
MRC-5 cells; compound 50 µM
  cell metabolic activity in % of the solvent control, mean: 90.99%
[1]; compound 5 µM
  cell metabolic activity in % of the solvent control, mean: 88.03%
[1]; compound 50 µM
  cell metabolic activity in % of the solvent control, mean: 8.82%

## CC(C)c1ccc(C(C2=CNC(C)(C)CC2=O)N2CCCC2)cc1 (racemic) [Example 5, (RS)-2,3-Dihydro-2,2-dimethyl-5-((4-isopropylphenyl)-(pyrrolidin-1-yl)methyl)pyridin-4(1H)-one]
Serratia sp
  Antimicrobial activity, Serratia sp: ±
Escherichia coli
  Antimicrobial activity, Escherichia coli: +
Pseudomonas fluorescens
  Antimicrobial activity, Pseudomonas fluorescens: ++
MRC-5 cells; compound 5 µM
  cell metabolic activity in % of the solvent control, mean: 104.11%
MRC-5 cells; compound 50 µM
  cell metabolic activity in % of the solvent control, mean: 42.19%
[1]; compound 5 µM
  cell metabolic activity in % of the solvent control, mean: 75.36%
[1]; compound 50 µM
  cell metabolic activity in % of the solvent control, mean: 8.72%

## CC1(C)CC(=O)C(C(c2ccc(F)cc2)N2CCOCC2)=CN1 (racemic) [Example 6, (RS)-2,3-Dihydro-2,2-dimethyl-5-((4-fluorphenyl)(morpholin-1-yl)methyl)pyridin-4 (1H) -one]
Serratia sp
  Antimicrobial activity, Serratia sp: ±
Escherichia coli
  Antimicrobial activity, Escherichia coli: +
Pseudomonas fluorescens
  Antimicrobial activity, Pseudomonas fluorescens: ++
MRC-5 cells; compound 5 µM
  cell metabolic activity in % of the solvent control, mean: 105.36%
MRC-5 cells; compound 50 µM
  cell metabolic activity in % of the solvent control, mean: 89.35%
[1]; compound 5 µM
  cell metabolic activity in % of the solvent control, mean: 87.71%
[1]; compound 50 µM
  cell metabolic activity in % of the solvent control, mean: 8.78%

## Cc1ccc(C(C2=CNC(C)(C)CC2=O)N2CCCC2)cc1 (racemic) [Example 7, (RS)-2,3-Dihydro-2,2-dimethyl-5-((4-methylphenyl)-(pyrrolidin-1-yl)methyl)pyridin-4(1H)-one]
Serratia sp
  Antimicrobial activity, Serratia sp: ±
Escherichia coli
  Antimicrobial activity, Escherichia coli: +
Pseudomonas fluorescens
  Antimicrobial activity, Pseudomonas fluorescens: ++
MRC-5 cells; compound 5 µM
  cell metabolic activity in % of the solvent control, mean: 100.07%
MRC-5 cells; compound 50 µM
  cell metabolic activity in % of the solvent control, mean: 88.41%
[1]; compound 5 µM
  cell metabolic activity in % of the solvent control, mean: 87.47%
[1]; compound 50 µM
  cell metabolic activity in % of the solvent control, mean: 8.52%

## CC1(C)CC(=O)C(C(c2ccccc2C(F)(F)F)N2CCCC2)=CN1 (racemic) [Example 8, (RS)-2,3-Dihydro-2,2-dimethyl-5-((pyrrolidin-1-yl)-(2-trifluormethylphenyl)methyl)pyridin-4(1H)-one]
MRC-5 cells; compound 5 µM
  cell metabolic activity in % of the solvent control, mean: 103.65%
MRC-5 cells; compound 50 µM
  cell metabolic activity in % of the solvent control, mean: 67.08%
[1]; compound 5 µM
  cell metabolic activity in % of the solvent control, mean: 52.06%
[1]; compound 50 µM
  cell metabolic activity in % of the solvent control, mean: 8.46%

## CC1(C)CC(=O)C(C(c2ccncc2)N2CCCC2)=CN1 (racemic) [Example 9, (RS)-2,3-Dihydro-2,2-dimethyl-5-((4-pyridyl)-(pyrrolidin-1-yl)methyl)pyridin-4(1H)-one]
Micrococcus luteus
  Antimicrobial activity, Micrococcus luteus: +
Serratia sp
  Antimicrobial activity, Serratia sp: ±
Escherichia coli
  Antimicrobial activity, Escherichia coli: +

## CC[C@]1(O)C[C@@H]2CN(CCc3c([nH]c4ccccc34)[C@@](C(=O)OC)(c3cc4c(cc3OC)N(C)[C@H]3[C@@](O)(C(=O)OC)[C@H](OC(C)=O)[C@]5(CC)C=CCN6CC[C@]43[C@@H]65)C2)C1 [Vinblastine, vinblastine, reference compound]
MRC-5 cells; control substance at 100 nM
  cell metabolic activity in % of the solvent control, mean: 51.88%
[1]; control substance at 100 nM
  cell metabolic activity in % of the solvent control, mean: 9.06%
